Tests used:
H1975 = assay: CCK-8 proliferation, NCI-H1975 (H1975); type: cell-based, Human; details: Homo sapiens, NCI-H1975; CCK-8; 96 hours; read-out: Inhibitory activity (IC50) on tumor cell proliferation, H1975
In short: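 Cells seeded, then after 24 h treated with 10 concentrations (top 10 µM, 5-fold serial dilution) for a line-specific time at 37°C, 5% CO2. Viability read by CCK-8; IC50 fitted from growth-inhibition curves.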

EGFR = assay: Western blot degradation of EGFR (H1975 Cell); type: cell-based, Human; details: Table D2
Procedure: Conventional Western blot assay was performed to evaluate the effects of the compounds of the present disclosure on the expression of target proteins in cells.
(1) Cell Seeding and Protein Harvesting: The selected cells were processed according to the cell seeding procedure and protein harvesting procedure in Table III-2. Table III-2 Cell Seeding and Protein Harvesting Procedures
(2) To the collected supernatant, 5X SDS sample loading buffer was added, followed by denaturation at 95°C for 5 minutes. The denatured samples were then separated by SDS-PAGE electrophoresis on a polyacrylamide gel. Proteins were transferred to a nitrocellulose membrane (0.45 µm NC membrane), blocked with blocking buffer at room temperature for 1 hour, and subjected to antibody incubation and development procedures according to the antibody manufacturer's instructions (Cell Signaling Technology).
Half-Maximal Degradation Concentration value (the drug concentration required for degrading proteins by 50%, abbreviated as DC50) reads method: comparing the grayscale values of Western blot bands from drug-treated samples with those from blank DMSO-treated controls, and identifying the drug concentration range at which the grayscale value is half that of the DMSO-treated control bands.
DC50 values can be calculated using ImageJ software to measure grayscale values of Western blot bands from drug-treated samples. The concentration-response curve is fitted to estimate the drug concentration corresponding to half the grayscale value.
Target protein remaining (%) refers to the percentage of target protein remaining in hPBMC cells after treatment with protein degrader compounds.
Calculation method for target protein remaining (%): Use ImageJ software to measure grayscale values of Western blot bands from drug (protein degrader)-treated samples. The grayscale value of drug-treated bands is divided by that of internal control protein bands, and the resulting quotient is normalized to obtain the relative percentage of remaining target protein after protein degrader treatment.
Target protein degradation rate (%) = 100% - target protein remaining (%).

SMILES | IC50 (H1975) [nM] | Degradation of substrate protein EGFR (substrate protein remaining %) (EGFR)
O=C1CCN(c2ccc(CN3C[C@@H]4C[C@H]3CN4c3ccc(-c4cc(F)c5c(c4)C(=O)N(C(C(=O)Nc4nccs4)c4ncn6c4CCC6)C5)cc3)nc2)C(=O)N1 (stereo partly drawn) [GT-05119, 2-(6,7-dihydro-5H-pyrrolo[1,2-c]imidazol-1-yl)-2-(6-(4-((1S,4S)-5-((5-(2,4-dioxotetrahydropyrimidin-1(2H)-yl)pyridin-2-yl)methyl)-2,5-diazabicyclo[2.2.1]heptan-2-yl)phenyl)-4-fluoro-1-oxoisoindolin-2-yl)-N-(thiazol-2-yl)acetamide] | 10 to 50 | A (A is defined as 0% ≤ substrate protein remaining % ≤ 80%)
O=C1CCC(c2ccc(CN3CCN(c4ccc(-c5cc(F)c6c(c5)C(=O)N(C(C(=O)Nc5nccs5)c5ncn7c5CCC7)C6)cc4)CC3)cc2)C(=O)N1 (stereo not shown) [GT-06163, 2-(6,7-dihydro-5H-pyrrolo[1,2-c]imidazol-1-yl)-2-(6-(4-(4-(4-(2,6-dioxopiperidin-3-yl)benzyl)piperazin-1-yl)phenyl)-4-fluoro-1-oxoisoindolin-2-yl)-N-(thiazol-2-yl)acetamide] | 1 to 10 | A (A is defined as 0% ≤ substrate protein remaining % ≤ 80%)
O=C1CCN(c2ccc(CN3CCN(c4ccc(-c5cc(F)c6c(c5)C(=O)N(C(C(=O)Nc5nccs5)c5ncn7c5CCC7)C6)cc4)CC3)cc2)C(=O)N1 (stereo not shown) [GT-06164, 2-(6,7-dihydro-5H-pyrrolo[1,2-c]imidazol-1-yl)-2-(6-(4-(4-(4-(2,4-dioxotetrahydropyrimidin-1(2H)-yl)benzyl)piperazin-1-yl)phenyl)-4-fluoro-1-oxoisoindolin-2-yl)-N-(thiazol-2-yl)acetamide] | 1 to 10 | A (A is defined as 0% ≤ substrate protein remaining % ≤ 80%)
O=C1CCN(c2cccc(CN3CCN(c4ccc(-c5cc(F)c6c(c5)C(=O)N(C(C(=O)Nc5nccs5)c5ncn7c5CCC7)C6)cc4)CC3)c2)C(=O)N1 (stereo not shown) [GT-06165, 2-(6,7-dihydro-5H-pyrrolo[1,2-c]imidazol-1-yl)-2-(6-(4-(4-(3-(2,4-dioxotetrahydropyrimidin-1(2H)-yl)benzyl)piperazin-1-yl)phenyl)-4-fluoro-1-oxoisoindolin-2-yl)-N-(thiazol-2-yl)acetamide] | 1 to 10 | A (A is defined as 0% ≤ substrate protein remaining % ≤ 80%)
O=C1CCN(c2ccc(CN3CCN(c4ccc(-c5cc(F)c6c(c5)C(=O)N(C(C(=O)Nc5nccs5)c5ncn7c5CCC7)C6)cc4)CC3)cn2)C(=O)N1 (stereo not shown) [GT-06166, 2-(6,7-dihydro-5H-pyrrolo[1,2-c]imidazol-1-yl)-2-(6-(4-(4-((6-(2,4-dioxotetrahydropyrimidin-1(2H)-yl)pyridin-3-yl)methyl)piperazin-1-yl)phenyl)-4-fluoro-1-oxoisoindolin-2-yl)-N-(thiazol-2-yl)acetamide] | 1 to 10 | A (A is defined as 0% ≤ substrate protein remaining % ≤ 80%)
O=C1CCN(c2ccc(CN3C[C@H]4C[C@@H]3CN4c3ccc(-c4cc(F)c5c(c4)C(=O)N(C(C(=O)Nc4nccs4)c4ncn6c4CCC6)C5)cc3)cc2)C(=O)N1 (stereo partly drawn) [GT-06177, 2-(6,7-dihydro-5H-pyrrolo[1,2-c]imidazol-1-yl)-2-(6-(4-((1R,4R)-5-(4-(2,4-dioxotetrahydropyrimidin-1(2H)-yl)benzyl)-2,5-diazabicyclo[2.2.1]heptan-2-yl)phenyl)-4-fluoro-1-oxoisoindolin-2-yl)-N-(thiazol-2-yl)acetamide] | 1 to 10 | A (A is defined as 0% ≤ substrate protein remaining % ≤ 80%)
O=C1CCN(c2cccc(CN3C[C@H]4C[C@@H]3CN4c3ccc(-c4cc(F)c5c(c4)C(=O)N(C(C(=O)Nc4nccs4)c4ncn6c4CCC6)C5)cc3)c2)C(=O)N1 (stereo partly drawn) [GT-06178, 2-(6,7-dihydro-5H-pyrrolo[1,2-c]imidazol-1-yl)-2-(6-(4-((1R,4R)-5-(3-(2,4-dioxotetrahydropyrimidin-1(2H)-yl)benzyl)-2,5-diazabicyclo[2.2.1]heptan-2-yl)phenyl)-4-fluoro-1-oxoisoindolin-2-yl)-N-(thiazol-2-yl)acetamide] | 1 to 10 | A (A is defined as 0% ≤ substrate protein remaining % ≤ 80%)
O=C1CCN(c2ccc(CN3CCN(c4ccc(-c5cc(F)c6c(c5)C(=O)N(C(C(=O)Nc5nccs5)c5ncn7c5CCC7)C6)cc4)CC3)nc2)C(=O)N1 (stereo not shown) [GT-06229, 2-(6,7-dihydro-5H-pyrrolo[1,2-c]imidazol-1-yl)-2-(6-(4-(4-((5-(2,4-dioxotetrahydropyrimidin-1(2H)-yl)pyridin-2-yl)methyl)piperazin-1-yl)phenyl)-4-fluoro-1-oxoisoindolin-2-yl)-N-(thiazol-2-yl)acetamide] | 1 to 10 | A (A is defined as 0% ≤ substrate protein remaining % ≤ 80%)
O=C1CCC(c2ccc(CN3CCN(C4CCN(c5ccc(-c6cc(F)c7c(c6)C(=O)N(C(C(=O)Nc6nccs6)c6ncn8c6CCC8)C7)cc5)CC4)CC3)cc2)C(=O)N1 (stereo not shown) [GT-06243, 2-(6,7-dihydro-5H-pyrrolo[1,2-c]imidazol-1-yl)-2-(6-(4-(4-(4-(4-(2,6-dioxopiperidin-3-yl)benzyl)piperazin-1-yl)piperidin-1-yl)phenyl)-4-fluoro-1-oxoisoindolin-2-yl)-N-(thiazol-2-yl)acetamide] | 1 to 10 | A (A is defined as 0% ≤ substrate protein remaining % ≤ 80%)
O=C1CCN(c2ccc(CN3CCN(C4CCN(c5ccc(-c6cc(F)c7c(c6)C(=O)N(C(C(=O)Nc6nccs6)c6ncn8c6CCC8)C7)cc5)CC4)CC3)cc2)C(=O)N1 (stereo not shown) [GT-06244, 2-(6,7-dihydro-5H-pyrrolo[1,2-c]imidazol-1-yl)-2-(6-(4-(4-(4-(4-(2,4-dioxotetrahydropyrimidin-1(2H)-yl)benzyl)piperazin-1-yl)piperidin-1-yl)phenyl)-4-fluoro-1-oxoisoindolin-2-yl)-N-(thiazol-2-yl)acetamide] | 1 to 10 | A (A is defined as 0% ≤ substrate protein remaining % ≤ 80%)
O=C1CCN(c2cccc(CN3CCN(C4CCN(c5ccc(-c6cc(F)c7c(c6)C(=O)N(C(C(=O)Nc6nccs6)c6ncn8c6CCC8)C7)cc5)CC4)CC3)c2)C(=O)N1 (stereo not shown) [GT-06245, 2-(6,7-dihydro-5H-pyrrolo[1,2-c]imidazol-1-yl)-2-(6-(4-(4-(4-(3-(2,4-dioxotetrahydropyrimidin-1(2H)-yl)benzyl)piperazin-1-yl)piperidin-1-yl)phenyl)-4-fluoro-1-oxoisoindolin-2-yl)-N-(thiazol-2-yl)acetamide] | 1 to 10 | A (A is defined as 0% ≤ substrate protein remaining % ≤ 80%)
O=C1CCN(c2ccc(CN3CCN(C4CCN(c5ccc(-c6cc(F)c7c(c6)C(=O)N(C(C(=O)Nc6nccs6)c6ncn8c6CCC8)C7)cc5)CC4)CC3)nc2)C(=O)N1 (stereo not shown) [GT-06246, 2-(6,7-dihydro-5H-pyrrolo[1,2-c]imidazol-1-yl)-2-(6-(4-(4-(4-((5-(2,4-dioxotetrahydropyrimidin-1(2H)-yl)pyridin-2-yl)methyl)piperazin-1-yl)piperidin-1-yl)phenyl)-4-fluoro-1-oxoisoindolin-2-yl)-N-(thiazol-2-yl)acetamide] | 1 to 10 | A (A is defined as 0% ≤ substrate protein remaining % ≤ 80%)
O=C1CCC(c2ccc(CN3CCN(C4CCN(c5ccc(-c6cc(F)c7c(c6)C(=O)N(C(C(=O)Nc6nccs6)c6ncn8c6CCC8)C7)cc5)CC4(F)F)CC3)cc2)C(=O)N1 (stereo not shown) [GT-06317, 2-(6,7-dihydro-5H-pyrrolo[1,2-c]imidazol-1-yl)-2-(6-(4-(4-(4-(4-(2,6-dioxopiperidin-3-yl)benzyl)piperazin-1-yl)-3,3-difluoropiperidin-1-yl)phenyl)-4-fluoro-1-oxoisoindolin-2-yl)-N-(thiazol-2-yl)acetamide] | 10 to 50 | A (A is defined as 0% ≤ substrate protein remaining % ≤ 80%)
O=C1CCN(c2ccc(CN3CCN(C4CCN(c5ccc(-c6cc(F)c7c(c6)C(=O)N(C(C(=O)Nc6nccs6)c6ncn8c6CCC8)C7)cc5)CC4(F)F)CC3)cc2)C(=O)N1 (stereo not shown) [GT-06318, 2-(6,7-dihydro-5H-pyrrolo[1,2-c]imidazol-1-yl)-2-(6-(4-(4-(4-(4-(2,4-dioxotetrahydropyrimidin-1(2H)-yl)benzyl)piperazin-1-yl)-3,3-difluoropiperidin-1-yl)phenyl)-4-fluoro-1-oxoisoindolin-2-yl)-N-(thiazol-2-yl)acetamide] | 10 to 50 | A (A is defined as 0% ≤ substrate protein remaining % ≤ 80%)

From patent publication EP4678638A1, “NEW E3 UBIQUITIN LIGASE LIGAND, PROTEIN DEGRADATION AGENT AND USE THEREOF” (priority 2023, dated 2024)
